What all share (assay): NCI tumour cell line growth inhibition, 48 h
Assay [1] has as its system BT-549 breast.
In assay [2] the test system is SK-MEL-2 melanoma.
Assay [3] deals with CCRF-CEM leukemia.
Assay [4] has as its system SF-295 CNS.
Assay [5] has as its system RXF 393 renal.
Assay [6] relates to HCC-2998 colon.
For assay [7], the system named is UO-31 renal.
Assay [8] deals with RPMI-8226 leukemia.
In assay [9] the test system is HT29 colon.
In assay [10] the test system is 786-0 renal.

“And” between values parts separate entries of the source, which are not always exact repeats. Equal entries are not always repeated.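 Values below derive from 48-hour exposures of cells grown in 96-well plates, with endpoints linearly interpolated between the two concentrations bracketing the appropriate inhibition level. Abbreviation: GI50, concentration required for 50% inhibition of growth. TGI: total growth inhibition.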 Where a SMILES comes first, the peptide text is derived from it. [ ]: non-standard residue; d: D form. Orn = NCCC[CH](N)C(=O)O

Regarding `CC(C)CC1NC(=O)C(CCCN)NC(=O)C(C(C)C)NC(=O)C2CCCN2C(=O)C(Cc2ccccc2)NC(=O)C(CC(C)C)NC(=O)C(CCCN)NC(=O)C(C(C)C)NC(=O)C2CCCN2C(=O)C(Cc2ccccc2)NC1=O` (stereo not drawn) (cyclo(FPV[Orn]LFPV[Orn]L); configuration not given here), the GI50 in [1] is 32.6 nM and 45.9 nM; in assay [2], 9.39 nM and 24.3 nM; in [3], 8.14 nM; in assay [4] it was 6.44 nM and 20.6 nM; in assay [5], 35.2 nM and 51.5 nM; in [6], < 3.25 nM. Also, the GI50 in [7] was 599 nM and 1640 nM; in assay [8], < 3.25 nM and 11.4 nM; in assay [9], 13.3 nM and 36.3 nM; in assay [10], 45.1 nM and 50.6 nM. In addition, the TGI in assay [1] was 261 nM and 271 nM; in assay [2], 40.4 nM and 89.1 nM; in assay [3], 320 nM; in assay [4], 18.6 nM and 73.5 nM; in assay [5], 720 nM and 1440 nM; in [6], 1290 nM and 1740 nM. Moreover, the TGI in [7] was 3610 nM and 6370 nM; in [8], 30.9 nM and 185 nM; in [9], 266 nM and 1220 nM; in assay [10] it was 460 nM and 1260 nM.

Regarding `C#CCOc1c(OC)cc(C(=O)/C(C)=C/c2cccc(N=[N+]=[N-])c2)cc1OC`, the GI50 was 131 nM in assay [1]; 725 nM in assay [2]; 117 nM in assay [3]; 122 nM in assay [4]; 250 nM in [5]; 464 nM in [6]. Further, the GI50 is 751 nM in [7], 255 nM in [8], 57.6 nM in assay [9] and 180 nM in [10]. Also, the TGI in assay [1] was 7100 nM; in assay [2] it was > 100000 nM; in assay [3], > 100000 nM; in [4], > 100000 nM; in assay [5], > 100000 nM; in assay [6] it was > 100000 nM. Further, the TGI in assay [7] is > 100000 nM; in [8] it was > 100000 nM; in [9], 73400 nM; in [10] it was > 100000 nM.

For `COc1ccc(-c2oncc2-c2cc(OC)c3c(c2)OCO3)cc1`, the GI50 in [1] was 5240 nM; in assay [2] it was 2880 nM; in assay [3] it was 2200 nM; in [4], 2130 nM; in [5] it was 2900 nM; in [6], 6360 nM. The GI50 in [7] is 4460 nM; in assay [8], 3930 nM; in [9], 1690 nM; in [10], 7670 nM. Moreover, the TGI in assay [1] was > 100000 nM; in [2], > 29500 nM; in assay [3], > 43600 nM; in [4], 10300 nM; in assay [5], 20300 nM; in assay [6] it was > 100000 nM. The TGI in assay [7] is 55900 nM; in assay [8] it was > 39500 nM; in assay [9], 13700 nM; in assay [10], > 100000 nM.

Regarding `CC(=O)/C=C/c1ccc(N(C)Cc2ccc(C(C)(C)C)cc2)cc1`, the GI50 was 133000 nM in assay [1]; 164000 nM in assay [2]; 164000 nM in [3]; 162000 nM in assay [4]; 131000 nM in assay [5]; 149000 nM in assay [6]. For the same compound, the GI50 in assay [7] was 83200 nM; in [8], 53900 nM; in [9], 58400 nM; in assay [10], 155000 nM. Also, the TGI in [1] was 277000 nM; in assay [2], 344000 nM; in assay [3], 903000 nM; in [4] it was 576000 nM; in assay [5] it was 272000 nM; in assay [6] it was 340000 nM. For the same compound, the TGI worked out at 212000 nM in assay [7], 237000 nM in assay [8] and 338000 nM in [10].

For `CCN(CC)CCCC(C)Nc1ccnc2cc(Cl)c(SCc3ccccc3)cc12` (stereo not drawn), the GI50 was 1780 nM in assay [1]; 1640 nM in assay [2]; 442 nM in assay [3]; 1320 nM in assay [4]; 1420 nM in assay [5]; 511 nM in assay [6]. The GI50 in assay [7] is 1350 nM; in assay [8], 633 nM; in [9] it was 338 nM; in [10], 1470 nM. Besides, the TGI in [1] came out at 3280 nM; in assay [2], 3220 nM; in assay [3] it was 4940 nM; in assay [4], 3020 nM; in assay [5], 2780 nM; in assay [6] it was 1880 nM. Moreover, the TGI in assay [7] was found to be 2950 nM; in assay [8], 2930 nM; in assay [9], 1130 nM; in assay [10], 2850 nM.

Turning to `CN(C)CCOc1cccc(NC2=C(Cl)C(=O)C(Nc3cccc(OCCN(C)C)c3)=C(Cl)C2=O)c1`, the GI50 in assay [1] was 1720 nM; in [2], 1110 nM; in assay [3], 256 nM; in assay [4], 2360 nM; in assay [5], 358 nM; in assay [6], 1440 nM. The GI50 in assay [7] is 498 nM; in assay [8] it was 306 nM; in assay [9] it was 258 nM; in assay [10], 490 nM. Further, the TGI in [1] turned out to be 3120 nM; in [2] it was 2610 nM; in assay [3], 932 nM; in [4] it was 5920 nM; in assay [5] it was 1210 nM; in assay [6], 3000 nM. The TGI in [7] was determined as 979 nM; in assay [8], 1030 nM; in [9], 666 nM; in assay [10], 1120 nM.

In the case of `CSc1ccc2c(c1)C(=O)c1c-2n(CCCN=[N+]=[N-])c(=O)c2cc([N+](=O)[O-])ccc12`, the TGI in assay [1] was > 100000 nM; in assay [2], > 100000 nM; in assay [3], 10900 nM; in [4], > 52100 nM; in [5], > 100000 nM; in [6], 66000 nM. Further, the TGI in [7] was > 100000 nM; in [8], 23200 nM; in [9], > 100000 nM; in assay [10] it was 14600 nM. For the same compound, the GI50 was 66700 nM in assay [2]; 239 nM in [3]; 553 nM in assay [4]; > 34400 nM in assay [5]; 1570 nM in [6]; 1620 nM in assay [7]. The results for the GI50 in assay [8], in assay [9] and in assay [10] were 1720 nM, 4300 nM and 1650 nM, respectively.

Values taken from PubChem BioAssay (NCI).
